Assay results as given in ChEMBL document CHEMBL4507268 (2021).

Tests used:
[1] = target: Sodium-dependent dopamine transporter (Homo sapiens) (UniProt Q01959); details: Compound concentration 10.0 uM
[2] = target: Calcium/calmodulin-dependent protein kinase type 1G (Homo sapiens) (UniProt Q96NX5); details: Compound concentration 1.0 uM
[3] = target: Dual specificity protein kinase CLK2 (Homo sapiens) (UniProt P49760); details: Compound concentration 1.0 uM
[4] = target: Ephrin type-A receptor 7 (Homo sapiens) (UniProt Q15375); details: Compound concentration 1.0 uM
[5] = target: T1, Ephrin type-B receptor 1 (Homo sapiens) (UniProt P54762); details: Compound concentration 1.0 uM
T1 sequence (whole entry): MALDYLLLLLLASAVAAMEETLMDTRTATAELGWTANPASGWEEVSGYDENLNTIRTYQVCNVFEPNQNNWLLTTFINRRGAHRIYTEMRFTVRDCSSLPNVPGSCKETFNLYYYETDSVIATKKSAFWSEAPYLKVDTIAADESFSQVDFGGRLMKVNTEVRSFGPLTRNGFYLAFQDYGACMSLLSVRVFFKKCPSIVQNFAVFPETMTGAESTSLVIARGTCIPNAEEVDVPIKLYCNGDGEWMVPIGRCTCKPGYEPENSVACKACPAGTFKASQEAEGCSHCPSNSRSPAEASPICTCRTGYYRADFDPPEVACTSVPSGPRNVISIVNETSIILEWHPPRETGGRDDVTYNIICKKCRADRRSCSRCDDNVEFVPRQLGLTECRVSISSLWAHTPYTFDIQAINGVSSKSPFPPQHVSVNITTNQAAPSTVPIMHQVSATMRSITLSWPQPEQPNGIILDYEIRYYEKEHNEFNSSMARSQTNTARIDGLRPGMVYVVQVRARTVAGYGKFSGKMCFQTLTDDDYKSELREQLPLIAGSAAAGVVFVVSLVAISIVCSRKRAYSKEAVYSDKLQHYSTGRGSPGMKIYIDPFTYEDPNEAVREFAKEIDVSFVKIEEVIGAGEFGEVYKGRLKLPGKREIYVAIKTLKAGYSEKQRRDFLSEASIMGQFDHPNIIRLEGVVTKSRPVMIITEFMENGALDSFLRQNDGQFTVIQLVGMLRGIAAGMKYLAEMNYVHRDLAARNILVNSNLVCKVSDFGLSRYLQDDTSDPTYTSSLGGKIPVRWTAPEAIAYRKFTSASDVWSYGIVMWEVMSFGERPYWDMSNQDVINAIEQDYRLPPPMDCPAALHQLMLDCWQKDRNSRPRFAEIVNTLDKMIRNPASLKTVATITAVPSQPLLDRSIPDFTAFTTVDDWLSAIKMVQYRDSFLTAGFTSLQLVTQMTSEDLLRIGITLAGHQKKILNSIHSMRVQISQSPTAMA

[6] = target: Fibroblast growth factor receptor 3 (Homo sapiens) (UniProt P22607); details: Compound concentration 1.0 uM
Fibroblast growth factor receptor 3 (Homo sapiens), sequence (P22607 23-806 limits assumed): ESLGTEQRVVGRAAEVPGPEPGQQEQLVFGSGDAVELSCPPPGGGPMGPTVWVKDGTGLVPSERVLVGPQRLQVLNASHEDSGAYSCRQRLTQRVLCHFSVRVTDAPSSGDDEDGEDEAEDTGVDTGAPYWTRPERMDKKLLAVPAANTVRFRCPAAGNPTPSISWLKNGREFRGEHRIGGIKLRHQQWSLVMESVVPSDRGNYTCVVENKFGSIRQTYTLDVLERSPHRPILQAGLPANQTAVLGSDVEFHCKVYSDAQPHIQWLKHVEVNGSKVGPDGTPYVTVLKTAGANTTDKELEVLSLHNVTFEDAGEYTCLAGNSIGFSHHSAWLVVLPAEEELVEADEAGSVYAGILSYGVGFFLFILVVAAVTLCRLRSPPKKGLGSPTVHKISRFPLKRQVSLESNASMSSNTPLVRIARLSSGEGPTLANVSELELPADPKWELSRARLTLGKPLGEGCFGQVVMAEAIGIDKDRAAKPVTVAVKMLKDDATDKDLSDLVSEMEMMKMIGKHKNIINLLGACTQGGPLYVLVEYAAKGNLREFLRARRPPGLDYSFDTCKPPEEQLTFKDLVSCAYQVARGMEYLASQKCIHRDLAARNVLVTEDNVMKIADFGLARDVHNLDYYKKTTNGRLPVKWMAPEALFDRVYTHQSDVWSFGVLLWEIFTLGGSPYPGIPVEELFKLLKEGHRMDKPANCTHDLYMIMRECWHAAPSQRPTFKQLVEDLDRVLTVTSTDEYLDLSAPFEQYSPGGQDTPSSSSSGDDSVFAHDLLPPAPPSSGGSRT

[7] = target: Eukaryotic translation initiation factor 2-alpha kinase 1 (Homo sapiens) (UniProt Q9BQI3); details: Compound concentration 1.0 uM
[8] = target: T2, Inhibitor of nuclear factor kappa-B kinase subunit epsilon (Homo sapiens) (UniProt Q14164); details: Compound concentration 1.0 uM
T2 sequence (whole entry): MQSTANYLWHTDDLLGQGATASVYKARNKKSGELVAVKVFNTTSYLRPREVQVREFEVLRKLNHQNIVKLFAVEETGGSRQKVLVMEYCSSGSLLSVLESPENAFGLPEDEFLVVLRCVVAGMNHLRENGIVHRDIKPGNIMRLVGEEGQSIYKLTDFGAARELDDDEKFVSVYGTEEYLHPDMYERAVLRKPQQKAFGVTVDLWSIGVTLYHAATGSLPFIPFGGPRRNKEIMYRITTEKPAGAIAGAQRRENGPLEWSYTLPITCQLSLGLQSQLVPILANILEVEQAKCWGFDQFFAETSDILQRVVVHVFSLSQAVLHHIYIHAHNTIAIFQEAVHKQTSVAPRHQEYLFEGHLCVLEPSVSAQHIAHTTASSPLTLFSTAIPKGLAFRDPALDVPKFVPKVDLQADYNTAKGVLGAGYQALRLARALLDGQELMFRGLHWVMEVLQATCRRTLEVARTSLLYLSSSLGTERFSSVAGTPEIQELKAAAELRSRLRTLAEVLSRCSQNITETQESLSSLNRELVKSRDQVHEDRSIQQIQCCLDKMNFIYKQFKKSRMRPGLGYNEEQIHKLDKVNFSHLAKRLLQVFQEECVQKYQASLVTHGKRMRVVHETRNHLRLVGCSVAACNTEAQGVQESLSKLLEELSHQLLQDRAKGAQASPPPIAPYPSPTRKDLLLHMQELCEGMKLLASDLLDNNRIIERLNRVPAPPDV

[9] = target: Tyrosine-protein kinase JAK2 (Homo sapiens) (UniProt O60674); details: Compound concentration 1.0 uM
Tyrosine-protein kinase JAK2 (Homo sapiens), sequence (O60674 whole entry, the tested form may be a part): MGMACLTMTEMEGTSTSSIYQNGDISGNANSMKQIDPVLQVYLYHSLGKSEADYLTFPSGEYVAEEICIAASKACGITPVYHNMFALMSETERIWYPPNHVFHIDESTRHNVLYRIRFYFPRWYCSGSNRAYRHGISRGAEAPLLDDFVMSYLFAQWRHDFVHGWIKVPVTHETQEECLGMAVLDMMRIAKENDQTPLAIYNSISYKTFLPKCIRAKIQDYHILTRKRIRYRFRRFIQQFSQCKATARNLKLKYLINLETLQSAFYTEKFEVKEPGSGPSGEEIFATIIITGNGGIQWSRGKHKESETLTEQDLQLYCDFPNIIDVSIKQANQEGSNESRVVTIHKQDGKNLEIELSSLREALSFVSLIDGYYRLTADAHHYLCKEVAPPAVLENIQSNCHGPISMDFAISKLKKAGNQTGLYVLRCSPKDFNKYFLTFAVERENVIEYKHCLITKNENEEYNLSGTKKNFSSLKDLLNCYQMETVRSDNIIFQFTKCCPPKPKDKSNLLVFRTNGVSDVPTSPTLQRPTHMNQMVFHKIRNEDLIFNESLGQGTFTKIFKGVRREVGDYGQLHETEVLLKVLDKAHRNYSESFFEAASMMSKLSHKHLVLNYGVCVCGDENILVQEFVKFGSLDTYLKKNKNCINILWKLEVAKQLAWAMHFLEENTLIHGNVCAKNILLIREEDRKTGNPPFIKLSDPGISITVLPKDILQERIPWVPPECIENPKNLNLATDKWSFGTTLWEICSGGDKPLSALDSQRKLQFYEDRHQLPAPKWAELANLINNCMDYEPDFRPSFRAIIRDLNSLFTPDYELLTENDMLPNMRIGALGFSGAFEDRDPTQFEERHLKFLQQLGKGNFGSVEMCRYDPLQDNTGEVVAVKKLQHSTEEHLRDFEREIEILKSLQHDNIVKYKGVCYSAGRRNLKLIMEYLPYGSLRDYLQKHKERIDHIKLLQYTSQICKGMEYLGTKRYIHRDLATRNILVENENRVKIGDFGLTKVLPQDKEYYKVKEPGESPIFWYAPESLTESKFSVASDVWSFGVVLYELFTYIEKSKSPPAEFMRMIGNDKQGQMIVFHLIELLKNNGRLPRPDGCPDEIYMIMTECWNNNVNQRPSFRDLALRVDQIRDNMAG

[10] = target: PAS domain-containing serine/threonine-protein kinase (Homo sapiens) (UniProt Q96RG2); details: Compound concentration 1.0 uM
[11] = target: Macrophage-stimulating protein receptor (Homo sapiens) (UniProt Q04912); details: Compound concentration 1.0 uM
Macrophage-stimulating protein receptor (Homo sapiens), sequence (Q04912 25-304 limits assumed): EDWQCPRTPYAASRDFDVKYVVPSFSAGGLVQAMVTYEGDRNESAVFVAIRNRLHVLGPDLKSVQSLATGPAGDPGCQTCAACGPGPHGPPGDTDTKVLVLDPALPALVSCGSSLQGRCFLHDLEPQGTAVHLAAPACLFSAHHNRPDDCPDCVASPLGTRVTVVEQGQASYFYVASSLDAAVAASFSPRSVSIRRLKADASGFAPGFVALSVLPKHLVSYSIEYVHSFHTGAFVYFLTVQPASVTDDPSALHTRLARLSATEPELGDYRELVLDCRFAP
Macrophage-stimulating protein receptor (Homo sapiens), sequence (Q04912 310-1400 limits assumed): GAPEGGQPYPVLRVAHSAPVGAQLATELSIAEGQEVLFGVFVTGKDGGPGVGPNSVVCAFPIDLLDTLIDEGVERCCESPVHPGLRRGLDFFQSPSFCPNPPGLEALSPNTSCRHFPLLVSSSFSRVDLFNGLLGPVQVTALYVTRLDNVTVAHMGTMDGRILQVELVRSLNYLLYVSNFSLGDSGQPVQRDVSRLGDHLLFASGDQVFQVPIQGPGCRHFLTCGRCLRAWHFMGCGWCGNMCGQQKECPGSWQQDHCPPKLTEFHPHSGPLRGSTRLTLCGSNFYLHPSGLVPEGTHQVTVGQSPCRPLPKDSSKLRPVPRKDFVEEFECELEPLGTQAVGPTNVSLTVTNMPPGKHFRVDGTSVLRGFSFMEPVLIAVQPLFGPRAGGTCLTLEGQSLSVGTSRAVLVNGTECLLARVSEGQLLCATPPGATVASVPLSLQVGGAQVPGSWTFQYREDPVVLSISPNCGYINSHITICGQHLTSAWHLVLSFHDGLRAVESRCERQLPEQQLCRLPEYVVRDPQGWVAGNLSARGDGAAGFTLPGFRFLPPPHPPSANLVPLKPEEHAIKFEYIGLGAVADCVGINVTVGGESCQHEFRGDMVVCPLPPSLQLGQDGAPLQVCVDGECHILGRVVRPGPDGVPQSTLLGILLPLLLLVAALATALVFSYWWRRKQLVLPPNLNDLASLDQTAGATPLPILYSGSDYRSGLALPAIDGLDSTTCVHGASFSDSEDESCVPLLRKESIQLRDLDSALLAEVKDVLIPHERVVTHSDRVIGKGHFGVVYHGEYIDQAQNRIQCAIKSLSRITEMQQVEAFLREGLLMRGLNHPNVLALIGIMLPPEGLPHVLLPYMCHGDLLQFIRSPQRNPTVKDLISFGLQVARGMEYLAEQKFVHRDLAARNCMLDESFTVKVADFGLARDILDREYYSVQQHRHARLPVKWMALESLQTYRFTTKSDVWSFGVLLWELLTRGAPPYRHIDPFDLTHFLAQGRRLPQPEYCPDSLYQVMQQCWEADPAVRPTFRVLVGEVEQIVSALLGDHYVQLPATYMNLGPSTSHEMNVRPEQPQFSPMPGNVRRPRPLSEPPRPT

[12] = target: SRSF protein kinase 1 (Homo sapiens) (UniProt Q96SB4); details: Compound concentration 1.0 uM
SRSF protein kinase 1 (Homo sapiens), sequence (Q96SB4 whole entry): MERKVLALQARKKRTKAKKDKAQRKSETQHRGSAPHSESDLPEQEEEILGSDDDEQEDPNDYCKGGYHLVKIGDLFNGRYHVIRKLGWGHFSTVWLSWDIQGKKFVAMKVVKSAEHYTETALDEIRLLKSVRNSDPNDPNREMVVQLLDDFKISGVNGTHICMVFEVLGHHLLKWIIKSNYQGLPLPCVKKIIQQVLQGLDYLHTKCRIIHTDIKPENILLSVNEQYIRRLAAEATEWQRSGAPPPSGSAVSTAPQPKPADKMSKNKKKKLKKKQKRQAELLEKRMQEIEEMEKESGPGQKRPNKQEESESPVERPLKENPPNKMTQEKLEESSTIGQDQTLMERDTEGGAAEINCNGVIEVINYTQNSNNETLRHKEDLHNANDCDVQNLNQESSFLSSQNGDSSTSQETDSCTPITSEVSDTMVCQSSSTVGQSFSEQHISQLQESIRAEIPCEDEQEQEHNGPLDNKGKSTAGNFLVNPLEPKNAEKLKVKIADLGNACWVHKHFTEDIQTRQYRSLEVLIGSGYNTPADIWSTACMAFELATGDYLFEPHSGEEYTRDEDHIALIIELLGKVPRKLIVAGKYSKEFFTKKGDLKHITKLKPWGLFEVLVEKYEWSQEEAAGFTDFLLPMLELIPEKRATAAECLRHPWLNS

[13] = target: T3, Tyrosine-protein kinase TXK (Homo sapiens) (UniProt P42681); details: Compound concentration 1.0 uM
T3 sequence (whole entry): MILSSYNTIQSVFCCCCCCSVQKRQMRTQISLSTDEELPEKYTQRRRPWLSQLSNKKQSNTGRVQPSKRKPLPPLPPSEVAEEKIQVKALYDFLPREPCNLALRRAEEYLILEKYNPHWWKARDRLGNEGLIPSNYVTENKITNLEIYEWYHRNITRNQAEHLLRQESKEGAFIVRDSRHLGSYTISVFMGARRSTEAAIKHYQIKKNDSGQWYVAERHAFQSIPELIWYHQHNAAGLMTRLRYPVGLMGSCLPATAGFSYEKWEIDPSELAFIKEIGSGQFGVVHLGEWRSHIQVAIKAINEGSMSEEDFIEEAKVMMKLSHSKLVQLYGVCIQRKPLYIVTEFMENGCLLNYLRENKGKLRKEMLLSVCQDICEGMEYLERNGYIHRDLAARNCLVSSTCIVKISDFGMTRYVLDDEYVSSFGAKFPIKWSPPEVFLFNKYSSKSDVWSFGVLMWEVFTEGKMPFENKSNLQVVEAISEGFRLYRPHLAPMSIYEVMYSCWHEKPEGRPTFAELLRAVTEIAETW

[14] = target: Serine/threonine-protein kinase VRK2 (Homo sapiens) (UniProt Q86Y07); details: Compound concentration 1.0 uM
Serine/threonine-protein kinase VRK2 (Homo sapiens), sequence (Q86Y07 whole entry): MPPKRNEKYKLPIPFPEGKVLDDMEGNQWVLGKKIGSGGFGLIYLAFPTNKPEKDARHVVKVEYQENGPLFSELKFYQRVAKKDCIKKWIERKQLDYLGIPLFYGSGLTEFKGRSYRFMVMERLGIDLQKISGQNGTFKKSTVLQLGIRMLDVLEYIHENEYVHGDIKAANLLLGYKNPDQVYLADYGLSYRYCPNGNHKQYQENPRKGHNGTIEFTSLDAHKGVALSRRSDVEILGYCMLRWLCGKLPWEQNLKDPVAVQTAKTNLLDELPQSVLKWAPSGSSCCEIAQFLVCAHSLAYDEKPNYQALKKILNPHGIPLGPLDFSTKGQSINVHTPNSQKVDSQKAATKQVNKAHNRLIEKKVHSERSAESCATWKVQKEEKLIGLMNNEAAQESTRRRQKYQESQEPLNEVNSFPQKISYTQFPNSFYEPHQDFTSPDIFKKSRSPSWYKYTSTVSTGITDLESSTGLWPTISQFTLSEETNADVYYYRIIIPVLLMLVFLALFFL

Calcium/calmodulin-dependent protein kinase type 1G (Homo sapiens), sequence (Q96NX5 whole entry): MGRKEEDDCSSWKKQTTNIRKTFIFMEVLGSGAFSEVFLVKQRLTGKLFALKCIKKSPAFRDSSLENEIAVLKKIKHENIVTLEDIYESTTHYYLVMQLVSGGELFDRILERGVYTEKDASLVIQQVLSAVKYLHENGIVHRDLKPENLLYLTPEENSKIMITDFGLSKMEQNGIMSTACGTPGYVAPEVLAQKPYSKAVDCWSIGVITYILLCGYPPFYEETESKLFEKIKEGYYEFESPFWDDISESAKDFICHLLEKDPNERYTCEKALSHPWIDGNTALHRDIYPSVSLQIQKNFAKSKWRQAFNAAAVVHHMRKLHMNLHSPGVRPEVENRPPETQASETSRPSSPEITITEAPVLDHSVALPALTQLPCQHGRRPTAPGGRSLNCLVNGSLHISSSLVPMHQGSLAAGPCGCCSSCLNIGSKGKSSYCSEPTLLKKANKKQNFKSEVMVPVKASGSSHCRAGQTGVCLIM

CN1CCN(c2cnc3c(C4CCN(C(=O)c5ccc(OC(F)(F)F)cc5N)CC4)ncnc3c2)CC1 [BAY-885]
inactive: inhibition [1] -4.2% | % residual kinase activity [2] 103% | % residual kinase activity [3] 109% | % residual kinase activity [4] 92% | % residual kinase activity [5] 105% | % residual kinase activity [6] 106% | % residual kinase activity [7] 104% | % residual kinase activity [8] 107% | % residual kinase activity [9] 100% | % residual kinase activity [10] 107% | % residual kinase activity [11] 100% | % residual kinase activity [12] 114% | % residual kinase activity [13] 99% | % residual kinase activity [14] 106%
